The record followed here is patent publication US20240417406A1, “NITROGEN-CONTAINING TRICYCLIC COMPOUND AND PHARMACEUTICAL USE THEREOF” (JAPAN TOBACCO INC., priority 2021, published 2024).

For this test, the target named is human PDHK2 (hPDHK2) (Homo sapiens (Human), UniProt Q15119). In words: Inhibitory action of PDHK2 activity (PDH/hPDHK2 complex, residual PDH activity by NADH absorbance at 340 nm). Type of test: biochemical. The conditions noted are these: FLAG-tagged recombinant hPDHK2 with porcine heart PDH complex; PDHK reaction 45 min at room temperature. The method in brief:
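N-FLAG hPDHK2 from E. coli (0.5 μg/mL) preincubated overnight at 4 °C with porcine heart PDH complex (0.025 U/mL), pH 7.0 MOPS buffer. Pyruvate, CoA, NAD and TPP substrates added, 90 min at room temperature. Residual PDH activity from NADH A340 change, corrected for compound effect on PDH alone; IC50 from inhibition %.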
As for `C[C@H]1Cn2nc(C34CCC(C#N)(C3)C4)cc2-c2cnc([C@@](C)(O)C(F)(F)F)n21` [Example 91, 4-((S)-5-methyl-3-((R)-1,1,1-trifluoro-2-hydroxypropan-2-yl)-5,6-dihydroimidazo[1,5-a]pyrazolo[5,1-c]pyrazin-9-yl)bicyclo[2.1.1]hexane-1-carbonitrile], the concentration for half-maximal inhibition (IC50) was found to be 23.3 nM.

For `C[C@H]1Cn2nc(C34CCC(CO)(C3)C4)cc2-c2cnc([C@@](C)(O)C(F)(F)F)n21` [Example 92], the IC50 is 31.9 nM.

For the compound `C[C@H]1Cn2nc(C34CCC(C#N)(CC3)CO4)cc2-c2cnc([C@@](C)(O)C(F)(F)F)n21` [Example 93, 1-((S)-5-methyl-3-((R)-1,1,1-trifluoro-2-hydroxypropan-2-yl)-5,6-dihydroimidazo[1,5-a]pyrazolo[5,1-c]pyrazin-9-yl)-2-oxabicyclo[2.2.2]octane-4-carbonitrile], the IC50 came to 33.4 nM.

As for `C[C@H]1Cn2nc(C34CCC(CO)(CC3)CO4)cc2-c2cnc([C@@](C)(O)C(F)(F)F)n21` [Example 94], the IC50 is 49.5 nM.

For the compound `C[C@H]1Cn2nc(OCC34CC(C#N)(C3)C4)cc2-c2cnc([C@@](C)(O)C(F)(F)F)n21` [Example 97, 3-((((S)-5-methyl-3-((R)-1,1,1-trifluoro-2-hydroxypropan-2-yl)-5,6-dihydroimidazo[1,5-a]pyrazolo[5,1-c]pyrazin-9-yl)oxy)methyl)bicyclo[1.1.1]pentane-1-carbonitrile], the IC50 was determined as 8.8 nM.

For the compound `C[C@H]1Cn2nc(C34CCC(C(C)(C)O)(CC3)CO4)cc2-c2cnc([C@@](C)(O)C(F)(F)F)n21` [Example 98, (R)-1,1,1-trifluoro-2-((S)-9-(4-(2-hydroxypropan-2-yl)-2-oxabicyclo[2.2.2]octan-1-yl)-5-methyl-5,6-dihydroimidazo[1,5-a]pyrazolo[5,1-c]pyrazin-3-yl)propan-2-ol], the IC50 was found to be 9.1 nM.

As for `C[C@H]1Cn2nc(C(F)(F)F)cc2-c2cnnc([C@@](C)(O)C(F)(F)F)c21` [Example 100, (R)-1,1,1-trifluoro-2-((R)-5-methyl-9-(trifluoromethyl)-5,6-dihydropyrazolo[1′,5′:1,2]pyrido[3,4-d]pyridazin-4-yl)propan-2-ol], the IC50 worked out at 11.1 nM.

For the compound `C[C@H]1Cc2nn([C@H]3CC[C@](C)(O)CC3)cc2-c2onc([C@@](C)(O)C(F)(F)F)c21` [Example 105, (1S,4r)-1-methyl-4-((S)-4-methyl-3-((R)-1,1,1-trifluoro-2-hydroxypropan-2-yl)-4,5-dihydro-7H-isoxazolo[5,4-e]indazol-7-yl)cyclohexan-1-ol], the IC50 stood at 10 nM.
